# Measured values published in PubChem BioAssay AID588589 (The Scripps Research Institute Molecular Screening Center, 2011).
# The source made the active and inactive calls. The rule behind the calls is not given here.
# Tested on: Fam108b (ABHD17B) [Mus musculus], recombinant soluble
# Test: inhibition of soluble recombinant Fam108b, SAR follow-up, biochemical, gel-based ABPP, soluble form (AID 588589)
# Conditions: fluorophosphonate probe, at 5 µM, active compounds read high
row,inhibition,SMILES
1,0% (inactive),O=c1oc(-c2ccc([N+](=O)[O-])cc2)nc2c1cnn2-c1ccccc1
2,15% (inactive),Cc1nsc2nc(-c3cc([N+](=O)[O-])ccc3Cl)oc(=O)c12
3,0% (inactive),COc1ccc(-c2csc3nc(-c4ccc(C)cc4)oc(=O)c23)cc1
4,35% (inactive),CCOc1ccc(-c2csc3nc(-c4ccccc4OC)oc(=O)c23)cc1
5,25% (inactive),Cc1nc2c(oc3ccccc32)c(=O)o1
6,35% (inactive),O=c1oc(-c2ccccc2)nc2c1oc1ccccc12
7,0% (inactive),COCc1nsc2nc(-c3ccccc3Cl)oc(=O)c12
8,55% (inactive),O=c1oc(-c2cccs2)nc2scc(-c3ccccc3)c12
9,20% (inactive),CCc1nsc2nc(-c3ccccc3Cl)oc(=O)c12
10,50% (inactive),O=C(Nc1cccc(-c2nc3ccccc3c(=O)o2)c1)c1ccccc1
11,30% (inactive),Cc1nsc2nc(-c3cc(S(=O)(=O)N(C)Cc4ccccc4)ccc3Cl)oc(=O)c12
12,45% (inactive),O=c1oc(-c2ccccn2)nc2ccccc12
13,0% (inactive),O=c1oc(-c2ccc(Br)cc2)nc2scc(-c3cccs3)c12
14,40% (inactive),O=c1oc(-c2ccc(C(F)(F)F)cc2)nc2c1oc1ccc(Cl)cc12
15,65%,O=C1CCC(=O)N1c1ccc(-c2nc3scc(-c4ccccc4)c3c(=O)o2)cc1
16,80%,O=c1oc(-c2ccccc2F)nc2scc(-c3cccs3)c12
17,20% (inactive),Cc1nsc2nc(-c3ccc(Cl)cc3Cl)oc(=O)c12
18,0% (inactive),CC(=O)Oc1ccc2nc(-c3ccccc3)oc(=O)c2c1
19,0% (inactive),Cc1nsc2nc(-c3ccccc3Cl)oc(=O)c12
20,0% (inactive),COc1cc2nc(-c3ccc(C(C)(C)C)cc3)oc(=O)c2cc1OC
21,35% (inactive),S=c1sc(-c2ccccc2Cl)nc2ccccc12
22,0% (inactive),CC(C)(C)c1ccc(-c2nc3sc4c(c3c(=O)o2)CCCC4)cc1
23,0% (inactive),COc1ccc(/C=C/c2nc3scc(-c4cccs4)c3c(=O)o2)cc1

row,inhibition,SMILES
1,15% (inactive),Cc1nsc2nc(-c3cc(Cl)ccc3Cl)oc(=O)c12
2,0% (inactive),COc1ccc(-c2csc3nc(-c4ccccc4Br)oc(=O)c23)cc1
3,20% (inactive),Cc1nsc2nc(-c3sc4ccccc4c3Cl)oc(=O)c12
4,0% (inactive),CC(C)(C)c1ccc(-c2nc3scc(-c4cccs4)c3c(=O)o2)cc1
5,0% (inactive),COc1cc(-c2nc3scc(-c4ccccc4)c3c(=O)o2)cc(OC)c1OC
6,10% (inactive),Cc1nsc2nc(-c3cc(Br)cnc3Cl)oc(=O)c12
7,5% (inactive),Cc1noc2nc(-c3ccccc3Cl)oc(=O)c12
8,0% (inactive),O=C1CCC(=O)N1c1ccc(-c2nc3scc(-c4cccs4)c3c(=O)o2)cc1
9,5% (inactive),Cc1nsc2nc(-c3cccnc3Cl)oc(=O)c12
10,5% (inactive),O=c1oc(-c2ccco2)nc2cccc(F)c12
11,80%,O=c1oc(-c2ccccc2Cl)nc2c1cnn2-c1ccccc1
12,0% (inactive),CCOc1ccc(-c2csc3nc(-c4ccc(F)cc4)oc(=O)c23)cc1
13,15% (inactive),CCCc1nsc2nc(-c3ccccc3Cl)oc(=O)c12
14,0% (inactive),Cc1ccc(-c2nc3scc(-c4ccc(Br)cc4)c3c(=O)o2)cc1
15,5% (inactive),Cc1ccc(-c2csc3nc(-c4ccc(C(C)(C)C)cc4)oc(=O)c23)cc1
16,0% (inactive),O=c1oc(-c2ccc(-c3ccccc3)cc2)nc2scc(-c3ccccc3)c12
17,5% (inactive),COc1ccc(-c2csc3nc(-c4cccc5ccccc45)oc(=O)c23)cc1OC
18,15% (inactive),Cc1nsc2nc(-c3cc(F)c(F)cc3Cl)oc(=O)c12
19,0% (inactive),COc1ccc(-c2csc3nc(-c4ccccc4C)oc(=O)c23)cc1
20,0% (inactive),O=c1oc(-c2ccc(F)cc2)nc2scc(-c3ccc(Br)cc3)c12
21,40% (inactive),O=c1oc(-c2cccs2)nc2cc(Cl)ccc12
22,0% (inactive),CC(C)(C)c1ccc(-c2nc3scc(-c4ccccc4)c3c(=O)o2)cc1
23,0% (inactive),O=C1OC(=O)c2cc(-c3nc4ccccc4c(=O)o3)ccc21

row,inhibition,SMILES
1,0% (inactive),COc1cc2nc(-c3c(OC)cccc3OC)oc(=O)c2cc1OC
2,20% (inactive),O=c1oc(-c2cccc(Cl)c2)nc2c1cnn2-c1ccccc1
3,0% (inactive),O=c1oc(-c2ccc(F)cc2)nc2scc(-c3cccs3)c12
4,55% (inactive),CCc1nc2sc(-c3ccccc3)c(-c3ccccc3)c2c(=O)o1
5,5% (inactive),CCOc1ccc(-c2csc3nc(-c4ccccc4C)oc(=O)c23)cc1
6,0% (inactive),O=C1CCC(=O)N1c1ccc(-c2nc3scc(-c4ccc(F)cc4)c3c(=O)o2)cc1
7,10% (inactive),Cc1nsc2nc(-c3ccc([N+](=O)[O-])cc3Cl)oc(=O)c12
8,70%,CC(C)(C)c1nc2scc(-c3ccccc3)c2c(=O)o1
9,40% (inactive),O=c1oc(-c2ccccc2)nc2c1oc1ccc(Cl)cc12
10,5% (inactive),COc1ccc(-c2csc3nc(Cc4ccccc4)oc(=O)c23)cc1OC
11,50% (inactive),O=c1oc(-c2ccccc2F)nc2scc(-c3ccc(Br)cc3)c12
12,5% (inactive),CCOc1cccc(-c2nc3ccc(OC(C)=O)cc3c(=O)o2)c1
13,0% (inactive),CCN(CC)S(=O)(=O)c1ccc(Cl)c(-c2nc3snc(C)c3c(=O)o2)c1
14,0% (inactive),COc1ccc(-c2csc3nc(-c4ccc(F)cc4)oc(=O)c23)cc1
15,70%,O=c1oc(-c2cccc(F)c2)nc2c1cnn2-c1ccccc1
16,25% (inactive),Cc1nsc2nc(-c3ccc(F)cc3Cl)oc(=O)c12
17,15% (inactive),COc1cc2nc(-c3ccccc3SC)oc(=O)c2cc1OC
18,0% (inactive),O=c1oc(-c2ccc(Br)cc2)nc2c1cnn2-c1ccccc1
19,70%,O=c1oc(-c2ccccc2)nc2c1cnn2-c1ccccc1
20,0% (inactive),O=c1oc(-c2cc3ccccc3o2)nc2ccc(Br)cc12
21,0% (inactive),Cc1ccc(-c2nc3sc(C)c(C)c3c(=O)o2)cc1
22,15% (inactive),Cc1ccccc1-c1nc2scc(-c3cccs3)c2c(=O)o1
23,0% (inactive),COc1ccc(-c2csc3nc(-c4ccc(Cl)cc4)oc(=O)c23)cc1

row,inhibition,SMILES
1,0% (inactive),CC(C)c1nsc2nc(-c3ccccc3Cl)oc(=O)c12
2,10% (inactive),Cc1nsc2nc(-c3cc(Cl)nnc3Cl)oc(=O)c12
3,50% (inactive),O=c1oc(-c2ccco2)nc2c1cnn2-c1ccccc1
4,10% (inactive),CSc1ccc(Cl)c(-c2nc3snc(C)c3c(=O)o2)c1
5,5% (inactive),Cc1nsc2nc(-c3cc(S(C)(=O)=O)ccc3Cl)oc(=O)c12
6,10% (inactive),O=c1oc(/C=C/c2ccccc2)nc2scc(-c3cccs3)c12
7,0% (inactive),O=c1oc(-c2cccc(Cl)c2)nc2scc(-c3ccc(Br)cc3)c12
8,0% (inactive),Cc1ccccc1-c1nc2scc(-c3ccc(Br)cc3)c2c(=O)o1
9,65%,Cc1nsc2nc(-c3cc(S(=O)(=O)N4CCCC4)ccc3Cl)oc(=O)c12
10,70%,O=c1oc(-c2cccs2)nc2c1cnn2-c1ccccc1
11,10% (inactive),O=c1oc(COc2ccccc2Cl)nc2ccccc12
12,75%,O=c1oc(-c2ccccc2F)nc2c1cnn2-c1ccccc1
13,10% (inactive),CCCOc1cccc(-c2nc3cc(OC)c(OC)cc3c(=O)o2)c1
14,5% (inactive),CCOc1cc2nc(-c3ccccc3SC)oc(=O)c2cc1OCC
15,15% (inactive),Cc1ccc2nc(-c3ccccc3Cl)oc(=O)c2c1
16,5% (inactive),O=c1oc(-c2cccc(Br)c2)nc2scc(-c3ccccc3)c12
17,40% (inactive),O=c1oc(-c2ccccc2Cl)nc2c1oc1ccccc12
18,10% (inactive),Cc1nsc2nc(-c3cc(S(=O)(=O)N(C)C)ccc3Cl)oc(=O)c12
19,40% (inactive),Cc1nsc2nc(-c3cc4ccccc4nc3Cl)oc(=O)c12
20,45% (inactive),O=c1oc(Cc2ccccc2)nc2scc(-c3ccccc3)c12
21,0% (inactive),Cc1sc2nc(-c3ccc(-c4ccccc4)cc3)oc(=O)c2c1C
22,0% (inactive),Cc1ccc(-c2csc3nc(-c4ccc(-c5ccccc5)cc4)oc(=O)c23)cc1
23,15% (inactive),Cc1nsc2nc(-c3cc(S(=O)(=O)N4CCCCC4)ccc3Cl)oc(=O)c12
